How the values were obtained:
Type in all cases: cell-based, human
MCF-7 cells [1] = experiment: Plant essential oil compounds against E2-induced cell growth, viable cell count (trypan blue, haemocytometer); conditions: 10 nM estrogen, 5 days of treatment; for protection against E2-induced abnormal cell growth: 1 ug/ml
Method: Various concentrations of plant essential oil compounds were tested against E2-induced cell growth to determine the lowest concentrations that antagonize the E2-induced cell growth. MCF-7 cells were cultured in growth medium supplemented with 10% fetal bovine serum (FBS). At 85% confluence, cells were sub-cultured in 6 well petri-dishes and supplemented with 5% FBS serum stripped medium, phenol red free for 24 hours prior to the treatment of different concentrations of the test chemicals. After 5 days of treatment cells were trypsinized and collected using an Eppendorf microcentrifuge. The cell pellets were resuspended in 1% trypan blue. Three aliquots (10 ul each) of the viable cell suspension was counted using a haemocytometer assay. Each sample was then counted three times and to obtain an average count. The compounds were tested in the presence of 10 nM estrogen (=2.7 ng estrogen/ml). Two wells per test concentration were used. This experiment was repeated two times. A control sample-received solvent only at <0.1% ethanol.

MCF-7 cells [2] = experiment: Mixed exposure of plant essential oil compounds and forskolin (FK) on E2-induced breast cancer cell growth (FIG. 3); conditions: mixed exposure with forskolin (FK), 10 nM estrogen
Method: (§1) MCF-7 cells were cultured in growth medium supplemented with 10% fetal bovine serum (FBS). At 85% confluence, cells were sub-cultured in 6 well petri-dishes medium supplemented with 5% FBS serum stripped medium, phenol red free for 24 hours prior to the treatment of different concentrations of the test chemicals. Cells were either counted (5 days after treatment) or used to determine cell proliferation (24 hr after treatment) using ^3H-thymidine incorporation. To count the cell, cells were trypsinized, and collected using Eppendorf microcentrifuge. The cell pellets were resuspended in 1% trypan blue and three aliquots (10 ul each) of the viable cell suspension was counted using a haemocytometer assay. Each sample was then counted three times to obtain an average count. For thymidine incoroporation, 24 hr after cell treated with test mixture, cells were incubated with 1 uCi ^3H-thymidine. After 2 hr, the medium was withdrawn and the cells were washed with thymidine-free medium and 10% TCA prior to radioactive count. Plant essential oil compounds were tested in the presence of 10 nM estrogen (=2.7 ng estrogen/ml) using three wells per test concentration. This experiment was repeated two times. A control sample received solvent only at <0.1% ethanol. The data supports the involvement of cellular signaling proteins, particularly cAMP/PKA cascade in the E2-induced cell proliferation in human breast cancer cells as judged by the antiestrogenic activity of FK. However, different methods are required to evaluate antiestrogenic activity.

MCF-7 cells [3] = experiment: Mixed exposure of okadaic acid (OA) and plant essential oil compounds, 3H-thymidine incorporation (FIG. 5); conditions: 10 ug/ml plant essential oil compound + 1 nM okadaic acid, 24 hr, with or without 10 nM E2
Method: MCF-7 cells were cultured in growth medium supplemented with 10% fetal bovine serum (FBS). At 85% confluence, cells were sub-cultured in 6 well petri-dishes medium supplemented with 5% FBS serum stripped medium, phenol red free for 24 hours prior to the treatment of 10 ug/ml of each plant essential oil compound and 1 nM okadiac acid. After 24 hr treatment, cells were used to determine cell proliferation using ^3H-thymidine incorporation. Two hrs after cell incubation with 1 uCi ^3H-thymidine, the medium was withdrawn and the cells were washed with thymidine-free medium and 10% TCA prior to radioactive count. These test chemicals were tested in the presence of 10 nM estrogen (=2.7 ng estrogen/ml). Three wells per test concentration were used. This experiment was repeated two times. A control sample received solvent only at <0.1% ethanol.

MCF-7 cells [4] = experiment: Effect of geldanamycin (GM) on antiestrogenic activity of plant essential oil compounds against E2-induced cell growth (FIG. 4); conditions: mixed exposure with geldanamycin (GM), 10 nM estrogen
Method: as §1, with “The data supports the involvement of cellular signaling proteins, particularly cAMP/PKA cascade in the E2-induced cell proliferation in human breast cancer cells as judged by the antiestrogenic activity of FK. However, different methods are required to evaluate antiestrogenic activity.” left out

Compound | protection against the E2-induced cell proliferation (MCF-7 cells [1]; 5 ug/ml) | synergism by FK of the antiestrogenic activity of the plant essential oil compound (MCF-7 cells [2]) | synergism by OA of the antiestrogenic activity of the plant essential oil compound (MCF-7 cells [3]) | protection against E2-induced abnormal cell growth (MCF-7 cells [1]) | protection against the E2-induced abnormal cell growth (MCF-7 cells [1]; concentration not given) | synergism by GM of the antiestrogenic activity against E2 induced cell growth (MCF-7 cells [4]) | protection against the E2-induced abnormal cell growth (MCF-7 cells [1]; 10 μg/ml)
Cc1ccc(C(C)C)c(O)c1 [thymol] | 40% | not | only in the absence of E2 |  |  |  | 
CC=Cc1ccc(O)c(OC)c1 [isoeugenol] |  | not |  | 25% | approximately 75% |  | 
C=CCc1ccc(O)c(OC)c1 [eugenol] |  | synergizes | regardless of the absence or presence of E2 | 35% |  | synergizes | 
O=C/C=C/c1ccccc1 [Cinnamic aldehyde] |  | synergizes |  |  |  |  | approximately 75%
